Positions of bridges follow the written chain, without caps; N, C: chain ends. Non-standard residues stand in square brackets, D forms with d. Residues, ends and D or L forms follow the SMILES beside them. Chains are numbered I, II in the order given. No end group written: not given here. *: point of attachment. Benzenesulfonyl(4-tBu) = CC(C)(C)c1ccc(S(=O)(=O)*)cc1; Dansyl = CN(C)c1cccc2c(S(=O)(=O)*)cccc12; dTic = O=C(O)[C@H]1Cc2ccccc2CN1; dPip = O=C(O)[C@H]1CCCCN1
What was measured:
Format in all cases: biochemical
[1] = target: T1, Human α-thrombin (Homo sapiens, UniProt P00734); test: Thrombin inhibition constants of monovalent active-site moieties and TWE1 (method not described)
T1 construct: Human α-thrombin was purchased from Haemotologic Technologies, Inc., VT, USA; purchased Haemotologic Technologies, Inc., VT, USA

[2] = target: T1, Human α-thrombin; test: Inhibition of thrombin-catalyzed hydrolysis of chromogenic substrate S-2366 (inhibition constant Ki); settings: Ki
[3] = target: thrombin (Homo sapiens, UniProt P00734); test: Fibrinogen clotting assay (concentration needed to double the clotting time = IC50)
Procedure: The same enzyme kinetic assays were used to determine the inhibitory activities of MH2 and two MH2-derived peptides, MH2-allGS and MH2-GS (Table 4). Clotting assays were carried out to determine the inhibitory activities of the rest of the MH2 peptides by use of the protocols described previously (DiMaio 1990; Taka 2000; Su 2004). The assay employs bovine plasma fibrinogen dissolved at 0.1% in 50 mM Tris-Cl, 100 mM NaCl, 0.1% PEG-8000 at pH 7.6 (i.e. the clotting buffer). In addition to the use of optical densities or ODs (Gill 1989), concentrations of the peptide stock solutions were ranked (and corrected when necessary) by use of quantitative proton NMR spectroscopy (Cavaluzzi 2002). Each assay mixture contained a certain concentration of the peptide, and the reaction was started by the addition of human thrombin to a final concentration of approximately 0.5 nM. Optical absorbance of the assay mixtures was measured at 420 nm using the Spectramax™ plate reader. The onset clotting time was determined as an intersection of the baseline and the tangent line at point of inflection of the clotting curve. The concentration of an MH2 peptide needed to double the clotting time was defined as IC50 (DiMaio 1990) as illustrated in FIG. 4 and summarized in Table 4. The correlation between IC50 values and linker unfolding is similar to that for the BTI series of inhibitors (Table 3). […] (Table 3).

[4] = test system: pooled human plasma; test: Prothrombin time (PT, thromboplastin) clotting assay
Procedure: (§1) Prothrombin (clotting) time (PT) or activated partial thromboplastin (clotting) time (APTT) assays were carried out at certain concentrations of the thrombin inhibitors of the present invention using pooled human plasma with addition of thromboplastin or activated partial thromboplastin to initiate clotting. The assays employed kits from Biopool International (Ventura, Calif., USA) or from Pacific Haemostasis (Middletown, Va., USA) using the procedures supplied by the manufacturer. Briefly, the stock solution of an inhibitor (with the concentration determined using UV-based OD determination, see Gill 1989) is diluted in a buffer of 20 mM HEPES and 150 mM NaCl at pH 7.4 (HBS) to a final volume of 50 μL, to which is added the reconstituted normal plasma (Product #CMS-176172 from Fisher Scientific) in an equal volume. This solution mixture is equilibrated at 37° C. for 2 minutes before 50 μL of the APTT-10XL solution (CMS-022927) is introduced forcibly to ensure proper mixing. This new mixture was incubated at 37° C. for another 5 minutes, which is followed by the addition of 50 μL of 0.02 M […] (Fisher Scientific CMS-022925) pre-warmed at 37° C. For the prothrombin time (PT) assay, an inhibitor is diluted in HBS to a final volume of 25 μL, to which is added the reconstituted control plasma (Fisher Scientific CMS-176172) in an equal volume. This solution mixture is equilibrated at 37° C. for 5 minutes before addition of 100 μL of the thromboplastin solution (CMS-176099) pre-warmed at 37° C. For APTT assays, inhibitory activities of the peptides are expressed as concentrations needed to achieve 50% of the maximum delay in clotting time (MCT50) as compared to the absence of thrombin inhibitors (Maraganore 1989). For PT assays, inhibitory activities are measured as the concentrations of the peptides that prolong the clotting time by 50% (IC50) of that of the normal control plasma (Maraganore 1990). PT and APTT assays were also carried out using slightly modified experimental procedures. Thus, 50 μL of a control plasma (Pacific Hemostasis) solution was added to 100 μL HBS (20 mM HEPES and 150 mM NaCl at pH 7.4) containing varied concentrations of the peptides of this invention. After incubation at 37° C. for 5 min, the mixture was added to 50 μL of the thromboplastin or activated partial thromboplastin reagent. Clotting of the plasma was monitored by change in absorbance at 420 nm using a SpectraMax™ plate reader.

[5] = test system: pooled human plasma; test: Activated partial thromboplastin time (APTT) clotting assay; settings: 37° C.; concentration for 50% of maximum delay in clotting time; read-out: MTC50 (APTT)
Procedure: as §1

[6] = monovalent binding moieties for the active site of thrombin

| Compound | Ki [1, 6] [µM] | further results |
| --- | --- | --- |
| CC(=O)N[C@H](Cc1ccccc1)C(=O)N1CCC[C@H]1C(=O)N[C@@H](CCCNC(=N)N)C(=O)O [Ac-dFPR] | 170 ± 18 |  |
| CC[C@H](C)[C@H](NC(=O)[C@H](CCC(=O)O)NC(=O)[C@H](CCC(=O)O)NC(=O)[C@H](Cc1ccccc1)NC(=O)[C@H](CC(=O)O)NC(=O)CNC(=O)[C@H](CCC(=O)O)NC(=O)[C@@H](NC(=O)[C@H](Cc1c[nH]c2ccccc12)NC(=O)[C@@H](NC(=O)[C@H](Cc1c[nH]c2ccccc12)NC(=O)[C@@H](NC(=O)[C@H](CCCCN)NC(=O)[C@@H](NC(=O)[C@H](C)NC(=O)[C@H](CC(=O)O)NC(=O)[C@H](CC(=O)O)NC(=O)[C@H](Cc1c[nH]c2ccccc12)NC(=O)[C@@H](NC(=O)[C@H](Cc1c[nH]c2ccccc12)NC(=O)[C@H](CCC(=O)O)NC(=O)CNC(=O)[C@H](CC(=O)O)NC(=O)[C@@H](NC(=O)[C@H](Cc1ccccc1)NC(=O)[C@H](CCCNC(=N)N)NC(=O)[C@@H]1CCCN1)[C@@H](C)O)[C@@H](C)O)[C@@H](C)O)[C@@H](C)O)[C@@H](C)O)[C@@H](C)O)C(=O)N1CCC[C@H]1C(=O)N[C@@H](CCC(=O)O)C(=O)N[C@@H](CCC(=O)O)C(=O)N[C@@H](Cc1ccc(O)cc1)C(=O)N[C@@H](CC(C)C)C(=O)N[C@@H](CCC(N)=O)C(=O)O [BRI-T109] |  | Ki ([2]; FIG. 14A): 1.45 µM |
| CC[C@H](C)[C@H](NC(=O)[C@H](CCC(=O)O)NC(=O)[C@H](CCC(=O)O)NC(=O)[C@H](Cc1ccccc1)NC(=O)[C@H](CC(=O)O)NC(=O)CNC(=O)[C@H](CCC(=O)O)NC(=O)[C@@H](NC(=O)[C@H](Cc1c[nH]c2ccccc12)NC(=O)[C@@H](NC(=O)[C@H](Cc1c[nH]c2ccccc12)NC(=O)[C@@H](NC(=O)[C@H](CCCCN)NC(=O)[C@@H](NC(=O)[C@H](C)NC(=O)[C@H](CC(=O)O)NC(=O)[C@H](CC(=O)O)NC(=O)[C@H](Cc1c[nH]c2ccccc12)NC(=O)[C@@H](NC(=O)[C@H](Cc1c[nH]c2ccccc12)NC(=O)[C@H](CCC(=O)O)NC(=O)CNC(=O)[C@H](CC(=O)O)NC(=O)[C@@H](NC(=O)[C@H](Cc1ccccc1)NC(=O)[C@H](CCCNC(=N)N)NC(=O)[C@@H]1CCCN1C(=O)[C@H](CCCNC(=N)N)NC(=O)[C@@H]1CCCN1C(=O)[C@H](CCC(N)=O)NC(=O)[C@@H](N)Cc1ccccc1)[C@@H](C)O)[C@@H](C)O)[C@@H](C)O)[C@@H](C)O)[C@@H](C)O)[C@@H](C)O)C(=O)N1CCC[C@H]1C(=O)N[C@@H](CCC(=O)O)C(=O)N[C@@H](CCC(=O)O)C(=O)N[C@@H](Cc1ccc(O)cc1)C(=O)N[C@@H](CC(C)C)C(=O)O [BRI-T207] |  | Ki ([2]; T = 37° C., enzyme kinetics, chromogenic substrate): ~0.4 µM |
| CC(C)(C)c1ccc(S(=O)(=O)N[C@@H](CCCNC(=N)N)C(=O)N2CCCC[C@@H]2C(=O)NCC(N)=O)cc1 [Bbs-R-(d-Pip)-G-NH2] | 2.26 ± 0.1 |  |
| CC(C)(C)c1ccc(S(=O)(=O)N[C@@H](CCCNC(=N)N)C(=O)N2CCCC[C@@H]2C(N)=O)cc1 [Bbs-R-(d-Pip)-NH2] | 1.13 ± 0.03 |  |
| CC(C)(C)c1ccc(S(=O)(=O)N[C@@H](CCCNC(=N)N)C(=O)N2CCCC[C@@H]2C(=O)N[C@@H](Cc2c[nH]c3ccccc23)C(N)=O)cc1 [Bbs-R-(d-Pip)-W-NH2] | 6 ± 1 |  |
| CC(C)(C)OC(=O)N[C@H](Cc1ccccc1)C(=O)N1CCC[C@H]1C(=O)N[C@@H](CCCNC(=N)N)C(=O)O [Boc-dFPR] | 4.38 ± 0.18 |  |
| CN(C)c1cccc2c(S(=O)(=O)N[C@@H](CCCNC(=N)N)C(=O)N3CCCC[C@@H]3C(N)=O)cccc12 [Dansyl-R-(d-Pip)-NH2] (Dansyl-Arg-[dPip]-NH2) | 0.37 ± 0.04 |  |
| CN(C)c1cccc2c(S(=O)(=O)N[C@@H](CCCNC(=N)N)C(=O)N3Cc4ccccc4C[C@@H]3C(N)=O)cccc12 [Dansyl-R-(d-Tic)-NH2] (Dansyl-Arg-[dTic]-NH2) | 0.86 ± 0.06 |  |
| N=C(N)NCCC[C@H](NC(=O)[C@@H]1CCCN1C(=O)[C@H](N)Cc1ccccc1)C(=O)O [H-dFPR] | 1.57 ± 0.06 |  |
| CC[C@H](C)[C@H](N)C(=O)N[C@@H](CCCNC(=N)N)C(=O)N[C@@H](Cc1ccccc1)C(=O)N[C@H](C(=O)N[C@@H](CC(=O)O)C(=O)NCC(=O)N[C@@H](CCC(=O)O)C(=O)N[C@@H](Cc1c[nH]c2ccccc12)C(=O)N[C@H](C(=O)N[C@@H](Cc1c[nH]c2ccccc12)C(=O)N[C@@H](CC(=O)O)C(=O)N[C@@H](CC(=O)O)C(=O)N[C@@H](C)C(=O)N[C@H](C(=O)N[C@@H](CCCCN)C(=O)N[C@H](C(=O)N[C@@H](Cc1c[nH]c2ccccc12)C(=O)N[C@H](C(=O)N[C@H](C(=O)N[C@H](C(=O)N[C@@H](CCC(=O)O)C(=O)NCC(=O)N[C@@H](CC(=O)O)C(=O)N[C@@H](Cc1ccccc1)C(=O)N[C@@H](CCC(=O)O)C(=O)N[C@@H](CCC(=O)O)C(=O)N[C@H](C(=O)N1CCC[C@H]1C(=O)N[C@@H](CCC(=O)O)C(=O)N[C@@H](CCC(=O)O)C(=O)N[C@@H](Cc1ccc(O)cc1)C(=O)N[C@@H](CC(C)C)C(=O)N[C@@H](CCC(N)=O)C(=O)O)[C@@H](C)CC)[C@@H](C)O)C(C)C)[C@@H](C)O)[C@@H](C)O)[C@@H](C)O)[C@@H](C)O)[C@@H](C)O [MH2-wZIP6] |  | IC50 ([3]; IC50 (anti-clotting), T = 37° C.): 0.053 µM; concentrations required in PT-APTT curves relative to MH2-GS [4]: about 2.5 times; IC50 ([4]; 37° C., concentration that prolongs clotting time by 50%): < 0.4 µM; EC50 [5]: 3 µM |
| CC[C@H](C)[C@H](N)C(=O)N[C@@H](CCCNC(=N)N)C(=O)N[C@@H](Cc1ccccc1)C(=O)N[C@H](C(=O)N[C@@H](CC(=O)O)C(=O)NCC(=O)N[C@@H](CCC(=O)O)C(=O)NCC(=O)N[C@H](C(=O)N1CCC[C@H]1C(=O)N[C@@H](CC(N)=O)C(=O)N1CCC[C@H]1C(=O)N[C@@H](CCC(=O)O)C(=O)N[C@@H](CO)C(=O)N[C@@H](Cc1c[nH]cn1)C(=O)N[C@@H](CC(N)=O)C(=O)N[C@@H](CC(N)=O)C(=O)NCC(=O)N[C@@H](CC(=O)O)C(=O)N[C@@H](Cc1ccccc1)C(=O)N[C@@H](CCC(=O)O)C(=O)N[C@@H](CCC(=O)O)C(=O)N[C@H](C(=O)N1CCC[C@H]1C(=O)N[C@@H](CCC(=O)O)C(=O)N[C@@H](CCC(=O)O)C(=O)N[C@@H](Cc1ccc(O)cc1)C(=O)N[C@@H](CC(C)C)C(=O)N[C@@H](CCC(N)=O)C(=O)O)[C@@H](C)CC)[C@@H](C)O)[C@@H](C)O [MH2] |  | IC50 ([3]; IC50, printed inside the sequence cell of Table 1, temperature not stated): ~0.014 µM |
| variant of BTI1: disulfide-bond linkage between Bbs-Arg-(D-Pip)-Gly-Cys and 15N-labelled Cys-(GS)8-GDFEEIPEEYLQ (peptide 1 {Benzenesulfonyl(4-tBu)}-R[dPip]GC; peptide 2 CGSGSGSGSGSGSGSGSGDFEEIPEEYLQ; disulfide I:4-II:1; also: chain 2 15N-labelled) [TWE1] |  | Ki ([1]; bivalent inhibitor TWE1): 0.0022 ± 0.0004 µM |

From patent publication US10155802B2, “Locally-active anticoagulants and anti-inflammatory agents” (priority 2011, dated 2018)
